Patent publication US4185010A, “Nonapeptides” (American Home Products Corporation, priority 1978, dated 1980)
Where a SMILES comes first, the peptide text is derived from it. Bridges are numbered along the chain shown (N, C = ends). [ ]: non-standard residue; d: D form. Abu = CC[C@H](N)C(=O)O

How the values were obtained:
Assay type in all cases: in vivo
[1] = test system: growth hormone (GH); assay: Arginine-stimulated hormone release in Nembutal-anesthetized rats, growth hormone by radioimmunoassay; conditions: albino male rats, 1,000 μg/kg subcutaneous, blood 15 min after dose (5 min after arginine); control 454 ± 106
Experimental: (§1) Albino male rate are administered Nembutal intraperitoneally at a dose of 50 milligrams per kilogram. Fifteen minutes later a subcutaneous injection of the test compound or physiological saline (control) is administered. Ten minutes later 0.5 milliliters of arginine (300 milligrams per milliliter, pH 7.2) is injected into the heart. Five minutes after receipt of the arginine the rats are decapitated and blood is collected into trasylol-EDTA. An appropriate aliquot is assayed for growth hormone (GH), insulin, and glucagon by radioimmunoassay.

[2] = test system: insulin; assay: Arginine-stimulated hormone release in Nembutal-anesthetized rats, insulin by radioimmunoassay; conditions: albino male rats, 1,000 μg/kg subcutaneous, blood 15 min after dose (5 min after arginine); control 269 ± 37
Experimental: as §1

[3] = test system: glucagon; assay: Arginine-stimulated hormone release in Nembutal-anesthetized rats, glucagon by radioimmunoassay
Experimental: as §1

## CC[C@@H]1NC(=O)[C@H](CCCCN)NC(=O)[C@@H](Cc2c[nH]c3ccccc23)NC(=O)[C@H](Cc2ccccc2)NC(=O)[C@H](Cc2ccccc2)NC(=O)[C@H](Cc2c[nH]cn2)NC(=O)[C@@H](N)CSSC[C@@H](C(=O)O)NC(=O)[C@H](Cc2ccccc2)NC1=O [Example 2, L-Cysteinyl-L-histidyl-L-phenylalanyl-L-phenylalanyl-D-tryptophyl-L-lysyl-L-α-aminobutyryl-L-phenylalanyl-L-cysteine cyclic (1-9) disulfide] (H-CHFF[dW]K[Abu]FC-OH; disulfide 1-9)
[1]
  GH: 413 ± 98 ng/mL
[2]
  INS: 262 ± 39 μU/ml
[3]; albino male rats, 1,000 μg/kg subcutaneous, blood 15 min after dose (5 min after arginine), control 60 ± 10, p<0.05
  GLUN: 31 ± 5 pg/mL
[3]; without materially altering blood serum growth hormone and insulin levels
  selective inhibition of glucagon release versus growth hormone and insulin levels: selectively inhibit glucagon release
